Data from ChEMBL document CHEMBL1153721, “Isohalitulin and haliclorensins B and C, three marine alkaloids from Haliclona tulearensis” (J Nat Prod, 2010).

Test: Toxicity against Artemia salina
Format: organism-based
Details: in vivo, read-out: LD50 (the source's name)

SMILES	LC50 [µM]
C[C@H]1CCCCCCCN2C=[N+](CCC2)C1 [HALICLORENSIN B]	2200
C[C@H]1CCCCCCCCCCCCCNC1 [HALICLORENSIN C]	2100
C[C@H]1CCCCCCCN(CCCn2cc(-c3c(O)c(O)cc4ncccc34)c(-c3c(O)c(O)cc4ncccc34)c2)C1 [ISOHALITULIN]	900
